≈ marks a conversion by molar mass, not a printed value. Like-named read-outs stand apart in the source and are kept apart here.
How the values were obtained:
[1] = test system: PKB Ser473 phosphorylation in Rat1-myr-HA-p110 alpha cells; test: Reverse protein array assay, PKB Ser473 phosphorylation in Rat1-myr-p110 alpha cells; format: cell-based; details: 0.5 h, pAkt Ser473, 30 minutes compound incubation, read-out: p-PKB IC50
Procedure, shortened: (§1)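 Compound exposure lasted 30 min in Rat1 cells bearing membrane-targeted HA-p110 isoforms, using 8 serial concentrations. Arrayed lysates, each spotted at four dilutions, gave relative fluorescence signals for phospho-Ser473 PKB.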

PI3K alpha = molecular target: T1, PI3K alpha (Homo sapiens, UniProt P42336); test: PI3K alpha kinase assay (Kinase-Glo luminescence); format: biochemical
T1 construct: p85(iSH2) fusion partner (see partner chain) (N); His tag (C); made in house; host or cells: baculovirus; Tn5 (Trichoplusia ni) or TiniPro insect cells
Procedure, shortened: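 Read-out: Kinase-Glo luminescence of ATP left after 60 min at room temperature. Conditions: 10 nM PI3Kα (EMV B1075), 1 μM ATP, 10 μg/mL PI substrate, Tris pH 7.5 buffer with MgCl2, NaCl, CHAPS and DTT. IC50s fitted with a four-parameter logistic model.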

[2] = test system: PKB Ser473 phosphorylation in Rat1-myr-HA-p110 beta cells; test: Reverse protein array assay, PKB Ser473 phosphorylation in Rat1-myr-p110 beta cells; format: cell-based; details: 0.5 h, pAkt Ser473, 30 minutes incubation, read-out: p-PKB IC50
Procedure, shortened: as §1

[3] = test system: PKB Ser473 phosphorylation in Rat1-myr-HA-p110 delta cells; test: Reverse protein array assay, PKB Ser473 phosphorylation in Rat1-myr-p110 delta cells; format: cell-based; details: read-out: p-PKB IC50
Procedure, shortened: as §1

Solubility at pH 6.8 = format: physicochemical
Procedure, shortened: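 Following the procedure of Zhou et al. (2007), compound solubility was determined at pH 6.8.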

[4] = pH 6.8, aqueous buffer, thermodynamic from solid, read-out: solubility

T1 sequence (P42336 with tags, fused parts or gaps limits assumed): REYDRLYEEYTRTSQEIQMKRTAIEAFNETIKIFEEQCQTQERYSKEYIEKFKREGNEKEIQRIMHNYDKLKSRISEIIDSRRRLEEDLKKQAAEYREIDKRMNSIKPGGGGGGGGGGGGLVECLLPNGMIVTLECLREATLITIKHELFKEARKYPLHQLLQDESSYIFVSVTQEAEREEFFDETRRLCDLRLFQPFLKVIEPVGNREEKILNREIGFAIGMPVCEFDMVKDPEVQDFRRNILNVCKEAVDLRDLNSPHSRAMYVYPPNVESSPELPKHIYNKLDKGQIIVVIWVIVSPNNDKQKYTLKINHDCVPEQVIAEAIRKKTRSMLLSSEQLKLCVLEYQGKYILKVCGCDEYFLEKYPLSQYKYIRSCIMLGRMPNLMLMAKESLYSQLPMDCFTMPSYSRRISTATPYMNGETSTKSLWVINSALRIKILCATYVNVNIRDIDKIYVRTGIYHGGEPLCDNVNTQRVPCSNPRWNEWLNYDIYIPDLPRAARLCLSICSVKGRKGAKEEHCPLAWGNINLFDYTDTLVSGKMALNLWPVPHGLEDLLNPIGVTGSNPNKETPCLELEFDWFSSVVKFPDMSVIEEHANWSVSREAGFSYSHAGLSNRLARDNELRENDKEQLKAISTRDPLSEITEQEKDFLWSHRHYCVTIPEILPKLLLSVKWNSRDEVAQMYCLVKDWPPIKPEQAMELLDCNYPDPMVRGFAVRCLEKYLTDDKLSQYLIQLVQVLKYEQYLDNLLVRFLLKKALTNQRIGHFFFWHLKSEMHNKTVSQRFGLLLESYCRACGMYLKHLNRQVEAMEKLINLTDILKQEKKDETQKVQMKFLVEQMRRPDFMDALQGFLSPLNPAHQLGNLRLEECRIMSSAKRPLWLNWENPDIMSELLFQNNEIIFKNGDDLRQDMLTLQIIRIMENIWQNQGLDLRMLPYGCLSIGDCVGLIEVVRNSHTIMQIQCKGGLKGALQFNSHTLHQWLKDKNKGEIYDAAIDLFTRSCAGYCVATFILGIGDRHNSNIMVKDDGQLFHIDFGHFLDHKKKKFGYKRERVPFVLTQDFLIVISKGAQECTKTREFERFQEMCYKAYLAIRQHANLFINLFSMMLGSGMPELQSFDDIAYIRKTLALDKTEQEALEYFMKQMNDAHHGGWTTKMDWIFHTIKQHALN

| SMILES | IC50 [1] | IC50 (PI3K alpha) | IC50 [2] | IC50 [3] | solubility (Solubility at pH 6.8; [4]) | solubility (Solubility at pH 6.8; pH 6.8) |
| --- | --- | --- | --- | --- | --- | --- |
| Cc1nn(C)cc1-n1c(=O)n(C)c2cnc3ccc(-c4cccc(C(N)=O)c4)cc3c21 [Example 46, 3-[1-(1,3-Dimethyl-1H-pyrazol-4-yl)-3-methyl-2-oxo-2,3-dihydro-1H-imidazo[4,5-c]quinolin-8-yl]-benzamide] | 214 nM | 50 nM | 541 nM | 489 nM | 8 µg/mL (≈ 19.4 µM) | – |
| CCOc1ccc(-c2ccc3ncc4c(c3c2)n(-c2cnn(C)c2C)c(=O)n4C)cn1 [Example 3.6, 1-(1,5-Dimethyl-1H-pyrazol-4-yl)-8-(6-ethoxy-pyridin-3-yl)-3-methyl-1,3-dihydro-imidazo[4,5-c]quinolin-2-one] | 45 nM | 50 nM | 119 nM | 232 nM | – | 2 µg/mL (≈ 4.83 µM) |
| Cc1nn(C)cc1-n1c(=O)n(C)c2cnc3ccc(-c4ccc(CO)nc4)cc3c21 [Example 16.2, 1-(1,3-Dimethyl-1H-pyrazol-4-yl)-8-(6-hydroxymethyl-pyridin-3-yl)-3-methyl-1,3-dihydro-imidazo[4,5-c]quinolin-2-one] | 151 nM | 26 nM | 70 nM | 151 nM | 102 µg/mL (≈ 255 µM) | – |
| Cc1nn(C)cc1-n1c(=O)n(C)c2cnc3ccc(-c4ccccc4)cc3c21 [Example 37.1, 1-(1,3-Dimethyl-1H-pyrazol-4-yl)-3-methyl-8-phenyl-1,3-dihydro-imidazo[4,5-c]quinolin-2-one] | 98 nM | 34 nM | 135 nM | 219 nM | 3 µg/mL (≈ 8.12 µM) | – |
| CCOc1ccc(-c2ccc3ncc4c(c3c2)n(-c2cn(CC)nc2C)c(=O)n4C)cc1OCC [Example 27.1, 8-(3,4-Diethoxy-phenyl)-1-(1-ethyl-3-methyl-1H-pyrazol-4-yl)-3-methyl-1,3-dihydro-imidazo[4,5-c]quinolin-2-one] | 17 nM | 8 nM | 21 nM | 56 nM | – | 2 µg/mL (≈ 4.24 µM) |
| CCN(C)C(=O)Cn1cc(-n2c(=O)n(C)c3cnc4ccc(-c5cncc(OC(C)C)c5)cc4c32)c(C)n1 [Example 58.5, N-Ethyl-2-{4-[8-(5-isopropoxy-pyridin-3-yl)-3-methyl-2-oxo-2,3-dihydro-imidazo[4,5-c]quinolin-1-yl]-3-methyl-pyrazol-1-yl}-N-methyl-acetamide] | 53 nM | 7 nM | 102 nM | 357 nM | 466 µg/mL (≈ 907 µM) | – |
| Cc1nn(C)cc1-n1c(=O)n(C)c2cnc3ccc(-c4ccc(C(N)=O)cc4)cc3c21 [Example 41, 4-[1-(1,3-Dimethyl-1H-pyrazol-4-yl)-3-methyl-2-oxo-2,3-dihydro-1H-imidazo[4,5-c]quinolin-8-yl]-benzamide] | 48 nM | < 9 nM | 37 nM | 92 nM | 14 µg/mL (≈ 33.9 µM) | – |
| CCOc1ccc(-c2ccc3ncc4c(c3c2)n(-c2ccnn2CC)c(=O)n4C)cn1 [Example 3.4, 8-(6-Ethoxy-pyridin-3-yl)-1-(2-ethyl-2H-pyrazol-3-yl)-3-methyl-1,3-dihydro-imidazo[4,5-c]quinolin-2-one] | 214 nM | 217 nM | 248 nM | 418 nM | – | 2 µg/mL (≈ 4.83 µM) |
| CCOc1cc(-c2ccc3ncc4c(c3c2)n(-c2cn(CC)nc2C)c(=O)n4C)ccc1OC [Example 28.1, 8-(3-Ethoxy-4-methoxy-phenyl)-1-(1-ethyl-3-methyl-1H-pyrazol-4-yl)-3-methyl-1,3-dihydro-imidazo[4,5-c]quinolin-2-one] | 7 nM | < 3 nM | 29 nM | 45 nM | 9 µg/mL (≈ 19.7 µM) | – |
| Cc1nn(CC(=O)N(C)C)c(C)c1-n1c(=O)n(C)c2cnc3ccc(-c4cncc(OC5CCC5)c4)cc3c21 [Example 60.2, 2-{4-[8-(5-Cyclobutoxy-pyridin-3-yl)-3-methyl-2-oxo-2,3-dihydro-imidazo[4,5-c]quinolin-1-yl]-3,5-dimethyl-pyrazol-1-yl}-N,N-dimethyl-acetamide] | 829 nM | 315 nM | – | – | 76 µg/mL (≈ 145 µM) | – |

Next, values leading:

| IC50 [1] | IC50 (PI3K alpha) | IC50 [2] | IC50 [3] | solubility (Solubility at pH 6.8; [4]) | solubility (Solubility at pH 6.8; pH 6.8) | SMILES |
| --- | --- | --- | --- | --- | --- | --- |
| 12 nM | 9 nM | 29 nM | 59 nM | 3 µg/mL (≈ 6.91 µM) | – | CNc1ncc(-c2ccc3ncc4c(c3c2)n(-c2cc(C)nn2C)c(=O)n4C)cc1Cl [Example 146.5, 8-(5-Chloro-6-methylamino-pyridin-3-yl)-1-(2,5-dimethyl-2H-pyrazol-3-yl)-3-methyl-1,3-dihydro-imidazo[4,5-c]quinolin-2-one] |
| 22 nM | 13 nM | 27 nM | 53 nM | 14 µg/mL (≈ 30.8 µM) | – | Cc1nn(C)cc1-n1c(=O)n(C)c2cnc3ccc(-c4cncc(C5(O)CCCC5)c4)cc3c21 [Example 218, 1-(1,3-Dimethyl-1H-pyrazol-4-yl)-8-[5-(1-hydroxy-cyclopentyl)-pyridin-3-yl]-3-methyl-1,3-dihydro-imidazo[4,5-c]quinolin-2-one] |
| 70 nM | 35 nM | 127 nM | 133 nM | 75 µg/mL (≈ 167 µM) | – | CNc1ncc(-c2ccc3ncc4c(c3c2)n(-c2c(C)nn(C)c2C)c(=O)n4C)cc1Cl [Example 146.4, 8-(5-Chloro-6-methylamino-pyridin-3-yl)-3-methyl-1-(1,3,5-trimethyl-1H-pyrazol-4-yl)-1,3-dihydro-imidazo[4,5-c]quinolin-2-one] |
| 23 nM | 11 nM | 29 nM | 28 nM | 16 µg/mL (≈ 36 µM) | – | COCc1cc(-c2ccc3ncc4c(c3c2)n(-c2cn(C)nc2C)c(=O)n4C)cnc1OC [Example 202, 1-(1,3-Dimethyl-1H-pyrazol-4-yl)-8-(6-methoxy-5-methoxymethyl-pyridin-3-yl)-3-methyl-1,3-dihydro-imidazo[4,5-c]quinolin-2-one] |
| 48 nM | 37 nM | 189 nM | 343 nM | > 473 µg/mL | – | COCc1ncc(-c2ccc3ncc4c(c3c2)n(-c2cn(C(C)C)nc2C)c(=O)n4C)cc1OC [Example 195.2, 1-(1-Isopropyl-3-methyl-1H-pyrazol-4-yl)-8-(5-methoxy-6-methoxymethyl-pyridin-3-yl)-3-methyl-1,3-dihydro-imidazo[4,5-c]quinolin-2-one] |
| 14 nM | 14 nM | 54 nM | 56 nM | > 473 µg/mL | – | COCc1ncc(-c2ccc3ncc4c(c3c2)n(-c2cn(C)nc2C)c(=O)n4C)cc1OC(C)C [Example 191.1, 1-(1,3-Dimethyl-1H-pyrazol-4-yl)-8-(5-isopropoxy-6-methoxymethyl-pyridin-3-yl)-3-methyl-1,3-dihydro-imidazo[4,5-c]quinolin-2-one] |
| 157 nM | 28 nM | 300 nM | 306 nM | > 417 µg/mL | – | Cc1nn(C)c(C)c1-n1c(=O)n(C)c2cnc3ccc(-c4cnc(N)c(F)c4)cc3c21 [Example 142.1, 8-(6-Amino-5-fluoro-pyridin-3-yl)-3-methyl-1-(1,3,5-trimethyl-1H-pyrazol-4-yl)-1,3-dihydro-imidazo[4,5-c]quinolin-2-one] |

Source: patent US20140005163A1 (NOVARTIS AG, priority 2010, published 2014)
